According to PubChem BioAssay (NCI):
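Exposure lasted 48 hours, with cells grown in 96-well plates and compounds tested at five concentrations. The concentration for 50% growth inhibition is given as GI50. TGI: concentration producing complete growth inhibition.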

Experiments:
Experiment in all cases: inhibition of tumour cell growth, NCI panel, 48 h
SF-268 CNS = tested on: SF-268 CNS
MCF7 breast = tested on: MCF7 breast
UACC-257 melanoma = tested on: UACC-257 melanoma
SK-MEL-28 melanoma = tested on: SK-MEL-28 melanoma
MDA-MB-468 breast = tested on: MDA-MB-468 breast
NCI/ADR-RES ovarian = tested on: NCI/ADR-RES ovarian
SF-295 CNS = tested on: SF-295 CNS
DU-145 prostate = tested on: DU-145 prostate
UACC-62 melanoma = tested on: UACC-62 melanoma
HCT-15 colon = tested on: HCT-15 colon
HCT-116 colon = tested on: HCT-116 colon
MDA-MB-435 = tested on: MDA-MB-435
CAKI-1 renal = tested on: CAKI-1 renal
SK-MEL-2 melanoma = tested on: SK-MEL-2 melanoma
OVCAR-4 ovarian = tested on: OVCAR-4 ovarian
MDA-MB-231 breast = tested on: MDA-MB-231 breast
LOX IMVI melanoma = tested on: LOX IMVI melanoma
MALME-3M melanoma = tested on: MALME-3M melanoma
SR leukemia = tested on: SR leukemia
RPMI-8226 leukemia = tested on: RPMI-8226 leukemia
SF-539 CNS = tested on: SF-539 CNS
HOP-62 NSCLC = tested on: HOP-62 NSCLC
BT-549 breast = tested on: BT-549 breast
SN12C renal = tested on: SN12C renal
UO-31 renal = tested on: UO-31 renal
CCRF-CEM leukemia = tested on: CCRF-CEM leukemia
SNB-19 CNS = tested on: SNB-19 CNS
HS 578T breast = tested on: HS 578T breast
SW-620 colon = tested on: SW-620 colon
NCI-H522 lung = tested on: NCI-H522 lung
TK-10 renal = tested on: TK-10 renal
EKVX NSCLC = tested on: EKVX NSCLC
NCI-H23 lung = tested on: NCI-H23 lung
786-0 renal = tested on: 786-0 renal
KM12 colon = tested on: KM12 colon
M14 melanoma = tested on: M14 melanoma
HCC-2998 colon = tested on: HCC-2998 colon
MOLT-4 leukemia = tested on: MOLT-4 leukemia
OVCAR-5 ovarian = tested on: OVCAR-5 ovarian
NCI-H226 lung = tested on: NCI-H226 lung
SK-MEL-5 melanoma = tested on: SK-MEL-5 melanoma
PC-3 prostate = tested on: PC-3 prostate
A549 NSCLC = tested on: A549 NSCLC
NCI-H460 lung = tested on: NCI-H460 lung
A498 renal = tested on: A498 renal
COLO 205 colon = tested on: COLO 205 colon
HL-60(TB) leukemia = tested on: HL-60(TB) leukemia
U251 CNS = tested on: U251 CNS
IGROV1 ovarian = tested on: IGROV1 ovarian
RXF 393 renal = tested on: RXF 393 renal
HOP-92 NSCLC = tested on: HOP-92 NSCLC
SK-OV-3 ovarian = tested on: SK-OV-3 ovarian
OVCAR-3 ovarian = tested on: OVCAR-3 ovarian
K-562 leukemia = tested on: K-562 leukemia
T-47D breast = tested on: T-47D breast
ACHN renal = tested on: ACHN renal
HT29 colon = tested on: HT29 colon
OVCAR-8 ovarian = tested on: OVCAR-8 ovarian
SNB-75 CNS = tested on: SNB-75 CNS

## COc1ccc(C(=O)/C=C/c2cccc3ccccc23)cc1S(N)(=O)=O
SF-268 CNS
  GI50: 3.04 µM
  TGI: 11.1 µM
MCF7 breast
  GI50: 2.14 µM
  TGI: 8.58 µM
UACC-257 melanoma
  GI50: 3.05 µM
  TGI: 12.3 µM
SK-MEL-28 melanoma
  GI50: 1.85 µM
  TGI: 3.64 µM
MDA-MB-468 breast
  GI50: 1.53 µM
  TGI: 3.11 µM
NCI/ADR-RES ovarian
  GI50: 2.2 µM
  TGI: 6.4 µM
SF-295 CNS
  GI50: 2.38 µM
  TGI: 7.74 µM
DU-145 prostate
  GI50: 2.85 µM
  TGI: 10.8 µM
UACC-62 melanoma
  GI50: 1.53 µM
  TGI: 3 µM
HCT-15 colon
  GI50: 1.23 µM
  TGI: 3.2 µM
HCT-116 colon
  GI50: 1.33 µM
  TGI: 2.93 µM
MDA-MB-435
  GI50: 2.23 µM
  TGI: 7.5 µM
CAKI-1 renal
  GI50: 2.42 µM
  TGI: 10.6 µM
SK-MEL-2 melanoma
  GI50: 4.99 µM
  TGI: 17.8 µM
OVCAR-4 ovarian
  GI50: 2.87 µM
  TGI: 11.3 µM
MDA-MB-231 breast
  GI50: 2.38 µM
  TGI: 6.49 µM
LOX IMVI melanoma
  GI50: 1.35 µM
  TGI: 2.63 µM
MALME-3M melanoma
  GI50: 1.83 µM
  TGI: 4.2 µM
SR leukemia
  GI50: 0.749 µM
  TGI: 5.13 µM
RPMI-8226 leukemia
  GI50: 1.59 µM
  TGI: 5.34 µM
SF-539 CNS
  GI50: 1.64 µM
  TGI: 3.06 µM
HOP-62 NSCLC
  GI50: 2.03 µM
  TGI: 5.66 µM
BT-549 breast
  GI50: 1.77 µM
  TGI: 3.63 µM
SN12C renal
  GI50: 1.6 µM
  TGI: 3.91 µM
UO-31 renal
  GI50: 1.48 µM
  TGI: 3.19 µM
CCRF-CEM leukemia
  GI50: 2.54 µM
  TGI: 6.95 µM
SNB-19 CNS
  GI50: 3.45 µM
  TGI: 13.7 µM
HS 578T breast
  GI50: 5.21 µM
  TGI: 26.8 µM
SW-620 colon
  GI50: 1.62 µM
  TGI: 3.46 µM
NCI-H522 lung
  GI50: 1.61 µM
  TGI: 3.2 µM
TK-10 renal
  GI50: 2.89 µM
  TGI: 10.2 µM
EKVX NSCLC
  GI50: 3.55 µM
  TGI: 13.5 µM
NCI-H23 lung
  GI50: 2.21 µM
  TGI: 5.64 µM
786-0 renal
  GI50: 1.86 µM
  TGI: 3.87 µM
KM12 colon
  GI50: 1.46 µM
  TGI: 3.57 µM
M14 melanoma
  GI50: 2.03 µM
  TGI: 5.68 µM
HCC-2998 colon
  GI50: 1.75 µM
  TGI: 3.24 µM
MOLT-4 leukemia
  GI50: 2.3 µM
  TGI: 6.39 µM
OVCAR-5 ovarian
  GI50: 1.84 µM
  TGI: 4.4 µM
NCI-H226 lung
  GI50: 3.1 µM
  TGI: 13.2 µM
SK-MEL-5 melanoma
  GI50: 2.53 µM
  TGI: 7.71 µM
PC-3 prostate
  GI50: 2.31 µM
  TGI: 6.64 µM
A549 NSCLC
  GI50: 2.66 µM
  TGI: 9.65 µM
NCI-H460 lung
  GI50: 1.79 µM
  TGI: 4.16 µM
A498 renal
  GI50: 13.2 µM
  TGI: 26.2 µM
COLO 205 colon
  GI50: 1.67 µM
  TGI: 3.24 µM
HL-60(TB) leukemia
  GI50: 1.36 µM
  TGI: 5.81 µM
U251 CNS
  GI50: 1.5 µM
  TGI: 3.02 µM
IGROV1 ovarian
  GI50: 2.3 µM
  TGI: 7.12 µM
RXF 393 renal
  GI50: 1.57 µM
  TGI: 3.24 µM
HOP-92 NSCLC
  GI50: 2.14 µM
  TGI: 9.53 µM
SK-OV-3 ovarian
  GI50: 3.72 µM
  TGI: 15.4 µM
OVCAR-3 ovarian
  GI50: 1.8 µM
  TGI: 4.38 µM
K-562 leukemia
  GI50: 1.69 µM
  TGI: 7.54 µM
T-47D breast
  GI50: 3.41 µM
  TGI: 14.1 µM
ACHN renal
  GI50: 1.89 µM
  TGI: 3.92 µM
HT29 colon
  GI50: 1.74 µM
  TGI: 3.92 µM
OVCAR-8 ovarian
  GI50: 2.39 µM
  TGI: 10.1 µM

## Cc1ccc2nc(-c3ccc(-c4nnc(SCC(=O)Nc5ccc(Cl)cc5)o4)cc3)[nH]c2c1
SF-268 CNS
  GI50: 15.7 µM
  TGI: 40.3 µM
MCF7 breast
  GI50: 4 µM
  TGI: 16.7 µM
UACC-257 melanoma
  GI50: 15.2 µM
  TGI: 31.5 µM
SK-MEL-28 melanoma
  GI50: 7.41 µM
  TGI: 20.2 µM
MDA-MB-468 breast
  GI50: 4.99 µM
  TGI: 17.6 µM
NCI/ADR-RES ovarian
  GI50: 4.13 µM
  TGI: 14.6 µM
SF-295 CNS
  GI50: 3.25 µM
  TGI: 12.4 µM
DU-145 prostate
  GI50: 7.92 µM
  TGI: 47.7 µM
UACC-62 melanoma
  GI50: 10.1 µM
  TGI: 21.8 µM
HCT-15 colon
  GI50: 7.87 µM
  TGI: 21.2 µM
HCT-116 colon
  GI50: 3.01 µM
  TGI: 15.2 µM
MDA-MB-435
  GI50: 6.5 µM
  TGI: 20.2 µM
CAKI-1 renal
  GI50: 3.59 µM
  TGI: 15.9 µM
SNB-75 CNS
  GI50: 10.5 µM
  TGI: 23.9 µM
SK-MEL-2 melanoma
  GI50: 15.5 µM
  TGI: 33.4 µM
OVCAR-4 ovarian
  GI50: 8.99 µM
  TGI: 28.7 µM
MDA-MB-231 breast
  GI50: 4.37 µM
  TGI: 16 µM
LOX IMVI melanoma
  GI50: 2.17 µM
  TGI: 5.64 µM
MALME-3M melanoma
  GI50: 10.4 µM
  TGI: 22.2 µM
RPMI-8226 leukemia
  GI50: 9.08 µM
  TGI: > 100 µM
SF-539 CNS
  GI50: 10.9 µM
  TGI: 23.1 µM
HOP-62 NSCLC
  GI50: 5.43 µM
  TGI: 23.5 µM
BT-549 breast
  GI50: 16.4 µM
  TGI: 32.4 µM
SN12C renal
  GI50: 4.21 µM
  TGI: 15.8 µM
UO-31 renal
  GI50: 10.6 µM
  TGI: 22.7 µM
CCRF-CEM leukemia
  GI50: 5.91 µM
  TGI: > 100 µM
SNB-19 CNS
  GI50: 6.93 µM
  TGI: 23.8 µM
HS 578T breast
  GI50: 10.2 µM
  TGI: 37.3 µM
SW-620 colon
  GI50: 3.73 µM
  TGI: 19.5 µM
NCI-H522 lung
  GI50: 10.2 µM
  TGI: 24.9 µM
TK-10 renal
  GI50: 6.8 µM
  TGI: 20.6 µM
EKVX NSCLC
  GI50: 6.56 µM
  TGI: 21.5 µM
NCI-H23 lung
  GI50: 4.37 µM
  TGI: 16.6 µM
786-0 renal
  GI50: 3.05 µM
  TGI: 10.7 µM
KM12 colon
  GI50: 13.3 µM
  TGI: 39 µM
M14 melanoma
  GI50: 5.75 µM
  TGI: 25.4 µM
HCC-2998 colon
  GI50: 10.6 µM
  TGI: 23.7 µM
MOLT-4 leukemia
  GI50: 7.02 µM
  TGI: 75 µM
OVCAR-5 ovarian
  GI50: 15.4 µM
  TGI: 38.3 µM
NCI-H226 lung
  GI50: 2.96 µM
  TGI: 9.92 µM
SK-MEL-5 melanoma
  GI50: 12.3 µM
  TGI: 26.4 µM
PC-3 prostate
  GI50: 3.73 µM
  TGI: 20.5 µM
A549 NSCLC
  GI50: 3.09 µM
  TGI: 12.5 µM
NCI-H460 lung
  GI50: 3.67 µM
  TGI: 15.8 µM
A498 renal
  GI50: 16.3 µM
  TGI: 31.4 µM
COLO 205 colon
  GI50: 9.86 µM
  TGI: 30.8 µM
HL-60(TB) leukemia
  GI50: 18.5 µM
  TGI: > 100 µM
U251 CNS
  GI50: 3.23 µM
  TGI: 14.2 µM
IGROV1 ovarian
  GI50: 5.9 µM
  TGI: 19 µM
RXF 393 renal
  GI50: 4.41 µM
  TGI: 16.5 µM
HOP-92 NSCLC
  GI50: 5.99 µM
  TGI: 24.4 µM
SK-OV-3 ovarian
  GI50: 7.48 µM
  TGI: 25.4 µM
OVCAR-3 ovarian
  GI50: 7.37 µM
  TGI: 22.4 µM
K-562 leukemia
  GI50: 3.88 µM
  TGI: > 100 µM
T-47D breast
  GI50: 18.1 µM
  TGI: 69.7 µM
ACHN renal
  GI50: 4 µM
  TGI: 15.3 µM
HT29 colon
  GI50: 4.73 µM
  TGI: 19.3 µM
OVCAR-8 ovarian
  GI50: 4.84 µM
  TGI: 16.9 µM

## Cn1cc(-c2csc(-c3cn(CCCCN4CCCCC4)c4ccccc34)n2)c2cccnc21
MDA-MB-468 breast
  GI50: 1.61 µM
  TGI: 3.29 µM

## CO[C@H]1Nc2c(ccc(C)c2O)C(=O)N2C=C(/C=C/C(N)=O)C[C@@H]12
MDA-MB-468 breast
  GI50: 0.0208 µM
  TGI: 0.0465 µM

## Cc1cn(-c2cc(C(=O)Nc3cccc(-n4ccc5c(NC(=O)c6ccccc6)nccc54)c3)cc(C(F)(F)F)c2)cn1
MDA-MB-468 breast
  GI50: 0.229 µM
  TGI: 1.04 µM
